Measured values as given in patent publication US12630527B2, “Broad spectrum anti-cancer compounds” (The Regents of the University of California, priority 2019, dated 2026).

Key:
[1] = system: LUDLU-1; test: High Throughput Screen for growth inhibition, LUDLU-1; type: cell-based; settings: LUDLU-1, LUSC; 3 days; unit not given
Description: (§1) The High Throughput Screen method is described below. The endpoint readout of this assay is based upon quantitation of ATP as an indicator of viable cells.
(§2) Cell lines that have been preserved in liquid nitrogen are thawed and expanded in growth media (see Table 1-3). Once cells have reached expected doubling times, screening begins. Cells are seeded in growth media in black 384-well tissue culture treated plates at 500-1500 cells per well (as noted in Analyzer). Cells are equilibrated in assay plates via centrifugation and placed at 37° C. 5% CO2 for twenty-four hours before treatment. […] Assay plates are incubated with compound for 3 days and are then analysed using CellTiter-Glo 2.0. All data points are collected via automated processes and are subject to quality control and analysed using Horizon's software.
(§3) Growth Inhibition (GI) is utilized as a measure of cell growth. The GI percentages are calculated by applying the following test and equation: If T<V_0: 100*(1−(T−V_0)/V_0) If T≥V_0: 100*(1−(T−V_0)/(V−V_0)) where T is the signal measure for a test article, V is the untreated/vehicle-treated control measure, and Vo is the untreated/vehicle control measure at time zero (also colloquially referred as T0 plates). This formula is derived from the Growth Inhibition calculation used in the National Cancer Institute's NCI-60 high throughput screen. For the purposes of this report, all data analysis was performed in Growth Inhibition (except where noted).
(§4) A GI of 100% represents complete growth inhibition (cytostasis) and in this case cells treated with compound for 3 days would have the same endpoint reading as TO control cells. A GI of 200% represents complete death (cytotoxicity) of all cells in the culture well and in this case the T reading at 3 days will be lower than the TO control (values near or at zero).
(§5) Horizon also provides Inhibition as a measure of cell viability. Inhibition levels of 0% represent no inhibition of cell growth by treatment. […] Inhibition percentage is calculated as the following: I=1−T/U where T is the treated and U is the untreated/vehicle control.

[2] = system: Ishikawa; test: High Throughput Screen for growth inhibition, Ishikawa; type: cell-based; settings: Endometrial (uterine), 3 days, unit not given
Description: as §1, §2
as §3, with “For the purposes of this report, all data analysis was performed in Growth Inhibition (except where noted).” left out

[3] = system: SW480; test: High Throughput Screen for growth inhibition, SW480; type: cell-based; settings: SW480, Colon; 3 days; unit not given
Description: as §1, §2
as §3, with “For the purposes of this report, all data analysis was performed in Growth Inhibition (except where noted).” left out

[4] = system: HCT-116; test: High Throughput Screen for growth inhibition, HCT-116; type: cell-based; settings: HCT-116, Colon; 3 days; unit not given
Description: as §1, §2
as §3, with “For the purposes of this report, all data analysis was performed in Growth Inhibition (except where noted).” left out

[5] = system: MOLT-4; test: High Throughput Screen for growth inhibition, MOLT-4; type: cell-based; settings: MOLT-4, Leukemia; 3 days; unit not given
Description: as §1, §2, §3, §4
(§6) Horizon also provides Inhibition as a measure of cell viability. Inhibition levels of 0% represent no inhibition of cell growth by treatment. Inhibition of 100% represents no doubling of cell numbers during the treatment window. Both cytostatic and cytotoxic treatments can yield an Inhibition percentage of 100%. Inhibition percentage is calculated as the following: I=1−T/U where T is the treated and U is the untreated/vehicle control.

[6] = system: PECAPJ15; test: High Throughput Screen for growth inhibition, PECAPJ15; type: cell-based; settings: PECAPJ15, Head and Neck; 3 days; unit not given
Description: as §1, §2
as §3, with “For the purposes of this report, all data analysis was performed in Growth Inhibition (except where noted).” left out

[7] = system: NCI-H520; test: High Throughput Screen for growth inhibition, NCI-H520; type: cell-based; settings: NCI-H520, LUSC; 3 days; unit not given
Description: as §1, §2
as §3, with “For the purposes of this report, all data analysis was performed in Growth Inhibition (except where noted).” left out

[8] = system: MC-F7; test: High Throughput Screen for growth inhibition, MC-F7 (MCF7); type: cell-based; settings: MC-F7, Breast (luminal); 3 days; unit not given
Description: as §1, §2
as §3, with “For the purposes of this report, all data analysis was performed in Growth Inhibition (except where noted).” left out

[9] = system: BICR16; test: High Throughput Screen for growth inhibition, BICR16; type: cell-based; settings: BICR16, Head and Neck; 3 days; unit not given
Description: as §1, §2, §3, §4, §5

[10] = system: Panc 04 03; test: High Throughput Screen for growth inhibition, Panc 04 03; type: cell-based; settings: Panc 04 03, Pancreatic; 3 days; unit not given
Description: as §1, §2
as §3, with “For the purposes of this report, all data analysis was performed in Growth Inhibition (except where noted).” left out

[11] = system: HEC-50B; test: High Throughput Screen for growth inhibition, HEC-50B; type: cell-based; settings: Endometrial (uterine), 3 days, unit not given
Description: as §1, §2
as §3, with “For the purposes of this report, all data analysis was performed in Growth Inhibition (except where noted).” left out

[12] = system: A549; test: High Throughput Screen for growth inhibition, A549; type: cell-based; settings: A549, lung adenocarcinoma; 3 days; unit not given
Description: as §1, §2
as §3, with “For the purposes of this report, all data analysis was performed in Growth Inhibition (except where noted).” left out

[13] = system: SKOV-3; test: High Throughput Screen for growth inhibition, SKOV-3; type: cell-based; settings: SKOV-3, Ovarian; 3 days; unit not given
Description: as §1, §2
as §3, with “For the purposes of this report, all data analysis was performed in Growth Inhibition (except where noted).” left out

[14] = system: MV4-11; test: High Throughput Screen for growth inhibition (CellTiter-Glo 2.0), MV4-11; type: cell-based; settings: MV4-11, Leukemia; 3 days with compound; unit not given
Description: as §1, §2
as §3, with “For the purposes of this report, all data analysis was performed in Growth Inhibition (except where noted).” left out

[15] = system: Kasumi-1; test: High Throughput Screen for growth inhibition, Kasumi-1; type: cell-based; settings: Kasumi-1, Leukemia; 3 days; unit not given
Description: as §1, §2
as §3, with “For the purposes of this report, all data analysis was performed in Growth Inhibition (except where noted).” left out

[16] = system: AGS; test: High Throughput Screen for growth inhibition, AGS; type: cell-based; settings: Gastric, 3 days, unit not given
Description: as §1, §2, §3, §4, §6

[17] = system: SUM159PT; test: High Throughput Screen for growth inhibition, SUM159PT; type: cell-based; settings: Breast, 3 days, unit not given
Description: as §1, §2
as §3, with “For the purposes of this report, all data analysis was performed in Growth Inhibition (except where noted).” left out

[18] = system: Pancreatic; settings: read-out: EC50 of chemo SOC; cited from earlier work

Structure (SMILES) | Growth Inhibition (GI) Values [1] | Growth Inhibition (GI) Values [2] | Growth Inhibition (GI) Values [3] | Growth Inhibition (GI) Values [4] | Growth Inhibition (GI) Values [5] | Growth Inhibition (GI) Values [6] | Growth Inhibition (GI) Values [7] | Growth Inhibition (GI) Values [8] | Growth Inhibition (GI) Values [9] | Growth Inhibition (GI) Values [10] | Growth Inhibition (GI) Values [11] | Growth Inhibition (GI) Values [12] | Growth Inhibition (GI) Values [13] | Growth Inhibition (GI) Values [14] | Growth Inhibition (GI) Values [15] | Growth Inhibition (GI) Values [16] | Growth Inhibition (GI) Values [17] | EC50 [18] [nM]
CN(Cc1ccc(C(F)(F)F)cc1)c1ccc(CNC2CC2)cn1 [TR-YTH-10] | 20.311 | 22.531 | 25.275 | 21.453 | 14.304 | 44.646 | 24.266 | 24.642 | 12.966 | 28.024 | 37.217 | 24.437 | 25.341 | 23.158 | 10.784 | 21.842 | 56.597 | 
Nc1ccn([C@@H]2O[C@H](CO)[C@@H](O)C2(F)F)c(=O)n1 [gemcitabine] |  |  |  |  |  |  |  |  |  |  |  |  |  |  |  |  |  | < 1000
